One assay concerns the target T1, PDGF-Ra (Homo sapiens, UniProt P16234).
T1 construct: host or cells: G-292 human osteosarcoma cells
The assay can be described thus: Inhibitory activity against PDGF-Ra phosphorylation by PDGF-AA stimulation using G292. It is filed as cell-based. The following applies: for IC50: > means inhibition at indicated concentration not more than 50%, < and << not less than 50%, read-out: PDGF (E) IC50; for inhibition at 0.1 µM: G292, figure within parentheses in >100( ), at 100 nM, read-out: PDGF (E) inhibition (%) at 100 nM. The gist of the method: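 Phospho-PDGF-Ra ELISA: capture with PY-20 antiphosphotyrosine, detection with anti-PDGF-Ra and peroxidase secondary, read at 450 nm. Lysates came from G-292 osteosarcoma cells starved in 0.1% FBS, compound-treated 1 hr at 37° C, and stimulated with 50 ng/ml PDGF-AA for 5 min.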

For the next assay, the target named is T2, c-kit (Homo sapiens, UniProt P10721).
T2 construct: MO7e (human megakaryocytic leukemia cell line) which had been arrested for 20 hr; endogenous in cells; host or cells: MO7e human megakaryocytic leukemia cell line
The assay can be described thus: Inhibitory activity against c-kit autophosphorylation (MO7e cells, h-SCF). It is filed as cell-based. As to conditions: for IC50: MO7e cells, 50 ng/ml h-SCF, read-out: c-kit IC50; for inhibition at 1 µM: Mo7e, figure within parentheses in −( ) or >1000( ), at 1000 nM. The gist of the method:
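Growth-arrested (20 hr) MO7e; cpd in DMSO, 1 hr; h-SCF 50 ng/ml, 5 min; lyse. ELISA: anti-pTyr (PY-20) capture, anti-c-kit 1° Ab, HRP anti-rabbit 2° Ab, A450.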

For orientation: IC50 means the concentration that inhibits the measured activity by half. What is called inhibition is the share of the control response that was lost under treatment.

T2 sequence (P10721 26-976): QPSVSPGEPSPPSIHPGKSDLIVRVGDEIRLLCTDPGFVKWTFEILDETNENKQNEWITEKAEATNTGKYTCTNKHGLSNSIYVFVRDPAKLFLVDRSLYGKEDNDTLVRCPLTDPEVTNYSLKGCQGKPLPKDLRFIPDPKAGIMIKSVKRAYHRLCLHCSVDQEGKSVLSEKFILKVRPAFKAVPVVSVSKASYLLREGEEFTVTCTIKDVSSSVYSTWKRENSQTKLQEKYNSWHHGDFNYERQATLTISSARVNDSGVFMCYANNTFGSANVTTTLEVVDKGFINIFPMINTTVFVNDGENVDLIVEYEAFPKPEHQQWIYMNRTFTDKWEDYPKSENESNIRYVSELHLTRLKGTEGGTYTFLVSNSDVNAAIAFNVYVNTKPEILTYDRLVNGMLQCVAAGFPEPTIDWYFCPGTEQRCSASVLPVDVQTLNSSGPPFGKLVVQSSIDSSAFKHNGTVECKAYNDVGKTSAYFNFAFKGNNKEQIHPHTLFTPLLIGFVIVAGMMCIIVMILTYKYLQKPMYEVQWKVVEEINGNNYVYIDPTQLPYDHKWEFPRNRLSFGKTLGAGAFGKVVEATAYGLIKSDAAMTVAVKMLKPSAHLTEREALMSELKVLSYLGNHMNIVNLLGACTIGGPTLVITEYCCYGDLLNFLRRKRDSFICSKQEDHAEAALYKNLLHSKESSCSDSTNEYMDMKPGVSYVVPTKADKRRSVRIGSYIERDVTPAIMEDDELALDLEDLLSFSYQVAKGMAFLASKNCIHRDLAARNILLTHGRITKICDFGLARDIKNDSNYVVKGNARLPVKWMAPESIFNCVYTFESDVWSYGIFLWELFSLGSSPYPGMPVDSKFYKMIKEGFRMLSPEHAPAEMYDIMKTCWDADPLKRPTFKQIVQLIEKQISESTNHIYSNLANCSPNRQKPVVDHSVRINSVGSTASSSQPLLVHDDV
T1 sequence (P16234 24-1089): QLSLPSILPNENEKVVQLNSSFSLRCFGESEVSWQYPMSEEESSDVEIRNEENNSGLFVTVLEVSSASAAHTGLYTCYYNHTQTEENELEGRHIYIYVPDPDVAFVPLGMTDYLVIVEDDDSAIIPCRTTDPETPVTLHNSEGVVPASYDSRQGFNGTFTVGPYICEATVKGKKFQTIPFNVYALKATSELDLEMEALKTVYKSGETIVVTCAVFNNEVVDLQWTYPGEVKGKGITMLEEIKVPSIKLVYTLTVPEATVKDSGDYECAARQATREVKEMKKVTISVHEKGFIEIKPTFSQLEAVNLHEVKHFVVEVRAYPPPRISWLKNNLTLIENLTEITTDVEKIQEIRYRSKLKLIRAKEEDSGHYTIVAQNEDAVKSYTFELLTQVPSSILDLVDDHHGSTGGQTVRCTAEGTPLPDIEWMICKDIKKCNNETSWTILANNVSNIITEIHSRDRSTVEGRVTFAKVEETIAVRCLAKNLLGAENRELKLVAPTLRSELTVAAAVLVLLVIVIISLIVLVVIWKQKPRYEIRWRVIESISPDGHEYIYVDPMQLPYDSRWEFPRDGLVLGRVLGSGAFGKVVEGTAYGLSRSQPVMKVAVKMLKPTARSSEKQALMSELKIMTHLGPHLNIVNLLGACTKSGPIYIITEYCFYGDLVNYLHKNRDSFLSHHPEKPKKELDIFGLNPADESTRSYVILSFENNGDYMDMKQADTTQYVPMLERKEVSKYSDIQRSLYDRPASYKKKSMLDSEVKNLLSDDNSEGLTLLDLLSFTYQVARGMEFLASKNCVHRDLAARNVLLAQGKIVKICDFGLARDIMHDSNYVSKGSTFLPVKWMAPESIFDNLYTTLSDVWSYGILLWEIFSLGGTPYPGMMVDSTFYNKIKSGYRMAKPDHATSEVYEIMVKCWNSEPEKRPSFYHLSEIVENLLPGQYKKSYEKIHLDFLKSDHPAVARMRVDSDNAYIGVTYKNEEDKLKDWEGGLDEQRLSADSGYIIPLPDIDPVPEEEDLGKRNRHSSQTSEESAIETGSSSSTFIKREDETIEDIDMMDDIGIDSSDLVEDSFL

As to `COc1cc2nccc(Oc3ccc(NC(=S)NC(=O)Cc4ccccc4F)cc3Cl)c2cc1OC` [Example 730, N-{3-Chloro-4-[(6,7-dimethoxy-4-quinolyl)oxy]phenyl}-N′-[2-(2-fluorophenyl)acetyl]thiourea], the IC50 turned out to be 34 nM on PDGF-Ra and 634 nM on c-kit.
For `COc1cc2nccc(Oc3ccc(NC(=S)NC(=O)CCc4ccccc4C)cc3)c2cc1OC` [Example 731, N-{4-[(6,7-Dimethoxy-4-quinolyl)oxy]phenyl}-N′-[3-(2-methylphenyl)propanoyl]thiourea], in that order: 17 nM and 259 nM.
Take `COc1ccccc1CC(=O)NC(=S)Nc1ccc(Oc2ccnc3cc(OC)c(OC)cc23)cc1` [Example 733, N-{4-[(6,7-Dimethoxy-4-quinolyl)oxy]phenyl}-N′-[2-(2-methoxyphenyl)acetyl]thiourea]: the IC50 on PDGF-Ra turned out to be 29 nM; on c-kit, 186 nM.
For the molecule `COc1ccccc1CC(=O)NC(=S)Nc1ccc(Oc2ccnc3cc(OC)c(OC)cc23)c(Cl)c1` [Example 734, N-{3-Chloro-4-[(6,7-dimethoxy-4-quinolyl)oxy]phenyl}-N′-[2-(2-methoxyphenyl)acetyl]thiourea], the IC50 on PDGF-Ra worked out at 29 nM; at c-kit, 216 nM.
Consider `COc1cc2nccc(Oc3ccc(NC(=S)NC(=O)COc4ccccc4)cc3)c2cc1OC` [Example 737, N-{4-[(6,7-Dimethoxy-4-quinolyl)oxy]phenyl}-N′-(2-phenoxyacetyl)thiourea], for which the IC50 on PDGF-Ra was under 10 nM; on c-kit, 523 nM.
For `COc1cc2nccc(Oc3ccc(NC(=S)NC(=O)COc4ccccc4)cc3Cl)c2cc1OC` [Example 738, N-{3-Chloro-4-[(6,7-dimethoxy-4-quinolyl)oxy]phenyl}-N′-(2-phenoxyacetyl)thiourea], the IC50 turned out to be 11 nM at PDGF-Ra and 269 nM at c-kit.
For `COc1cc2nccc(Oc3ccc(NC(=S)NC(=O)COc4ccccc4C)cc3)c2cc1OC` [Example 739, N-{4-[(6,7-Dimethoxy-4-quinolyl)oxy]phenyl}-N′-[2-(2-methylphenoxy)acetyl]thiourea], in that order: under 10 nM and 234 nM.
For `COc1cc2nccc(Oc3ccc(NC(=S)NC(=O)COc4ccccc4C)cc3Cl)c2cc1OC` [Example 740, N-{3-Chloro-4-[(6,7-dimethoxy-4-quinolyl)oxy]phenyl}-N′-[2-(2-methylphenoxy)acetyl]thiourea] the same measures were 23 nM and 335 nM.
For `COc1cc2nccc(Oc3ccc(NC(=S)NC(=O)[C@H](C)c4ccccc4)cc3)c2cc1OC` [Example 743, N-{4-[(6,7-Dimethoxy-4-quinolyl)oxy]phenyl}-N′-[(2R)-2-phenylpropanoyl]thiourea] the same measures were 10 nM and 548 nM.
On to `CCC(C(=O)NC(=S)Nc1ccc(Oc2ccnc3cc(OC)c(OC)cc23)cc1)c1ccccc1` (stereo not drawn) [Example 747, N-{4-[(6,7-Dimethoxy-4-quinolyl)oxy]phenyl}-N′-(2-phenylbutanoyl)thiourea], for which the IC50 on PDGF-Ra was 35 nM; on c-kit, 759 nM.
Turning to `COc1cc2nccc(Oc3ccc(NC(=S)NC(=O)C4(C)CC4(Cl)Cl)cc3)c2cc1OC` (stereo not drawn) [Example 749, N-[(2,2-Dichloro-1-methylcyclopropyl)carbonyl]-N′-{4-[(6,7-dimethoxy-4-quinolyl)oxy]phenyl}thiourea], the IC50 at PDGF-Ra is 12 nM. Also, the inhibition at 1 µM on c-kit came to 41%.
For `COc1cc2nccc(Oc3ccc(NC(=S)NC(=O)C4(C)CC4(Cl)Cl)cc3Cl)c2cc1OC` (stereo not drawn) [Example 750, N-{3-Chloro-4-[(6,7-dimethoxy-4-quinolyl)oxy]phenyl}-N′-[(2,2-dichloro-1-methylcyclopropyl)carbonyl]thiourea], in that order: 17 nM and 43%.
For `CCCCOc1ccc(C(=O)NC(=S)Nc2ccc(Oc3ccnc4cc(OC)c(OC)cc34)cc2)cc1` [Example 751, N-(4-Butoxybenzoyl)-N′-{4-[(6,7-dimethoxy-4-quinolyl)oxy]phenyl}thiourea] the same measures were 70 nM and 23%.
Regarding `CCCCCOc1ccc(C(=O)NC(=S)Nc2ccc(Oc3ccnc4cc(OC)c(OC)cc34)cc2)cc1` [Example 753, N-{4-[(6,7-Dimethoxy-4-quinolyl)oxy]phenyl}-N′-[4-(pentyloxy)benzoyl]thiourea], on PDGF-Ra, the IC50 is over 100 nM and the inhibition at 0.1 µM was 28%. In addition, the inhibition at 1 µM on c-kit worked out at 9%.
For `COc1cc2nccc(Oc3ccc(NC(=S)NC(=O)C4C(C)(C)C4(C)C)cc3)c2cc1OC` [Example 759], the IC50 turned out to be 26 nM on PDGF-Ra and 323 nM on c-kit.
For `COc1cc2nccc(Oc3ccc(NC(=S)NC(=O)C4C(C)(C)C4(C)C)cc3Cl)c2cc1OC` [Example 760, N-{3-Chloro-4-[(6,7-dimethoxy-4-quinolyl)oxy]phenyl}-N′-[(2,2,3,3-tetramethylcyclopropyl)carbonyl]thiourea], the IC50 on PDGF-Ra was determined as 83 nM. The inhibition at 1 µM on c-kit was determined as 48%.
Turning to `COc1cc2nccc(Oc3ccc(NC(=S)NC(=O)C(OC)c4ccccc4)cc3)c2cc1OC` (stereo not drawn) [Example 761, N-{4-[(6,7-Dimethoxy-4-quinolyl)oxy]phenyl}-N′-(2-methoxy-2-phenylacetyl)thiourea], on PDGF-Ra, the IC50 is over 100 nM and the inhibition at 0.1 µM stood at 37%. Also, on c-kit, the inhibition at 1 µM is 44%.
For the molecule `COc1cc2nccc(Oc3ccc(NC(=S)NC(=O)C(C)Oc4ccccc4Cl)cc3)c2cc1OC` (stereo not drawn) [Example 763, N-[2-(2-Chlorophenoxy)propanoyl]-N′-{4-[(6,7-dimethoxy-4-quinolyl)oxy]phenyl}thiourea], the IC50 at PDGF-Ra was 13 nM. Besides, the inhibition at 1 µM at c-kit worked out at 39%.
As for `COc1cc2nccc(Oc3ccc(NC(=S)NC(=O)C(C)Oc4ccccc4Cl)cc3Cl)c2cc1OC` (stereo not drawn) [Example 764, N-{3-Chloro-4-[(6,7-dimethoxy-4-quinolyl)oxy]phenyl}-N′-[2-(2-chlorophenoxy)propanoyl]thiourea], the IC50 at PDGF-Ra stood at 14 nM. The inhibition at 1 µM on c-kit turned out to be 19%.
For `COc1cc2nccc(Oc3ccc(NC(=S)NC(=O)C4CCCO4)cc3)c2cc1OC` (stereo not drawn) [Example 765, N-{4-[(6,7-Dimethoxy-4-quinolyl)oxy]phenyl}-N′-tetrahydro-2-furanylcarbonylthiourea], the IC50 at PDGF-Ra is 21 nM; at c-kit, 937 nM.
Take `COc1cc2ncnc(Oc3ccc(OC(=O)c4ccccc4)cc3)c2cc1OC` [Example 772, 4-[(6,7-Dimethoxy-4-quinazolinyl)oxy]phenyl benzoate]: on PDGF-Ra, the IC50 was over 100 nM and the inhibition at 0.1 µM came out at 13%. Also, the IC50 at c-kit was 550 nM.
Consider `COc1ccccc1NCCOc1ccc(Oc2ccnc3cc(OC)c(OC)cc23)cc1` [Example 777, N-(2-{4-[(6,7-Dimethoxy-4-quinolyl)oxy]phenoxy}ethyl)-N-(2-methoxyphenyl)amine], for which the IC50 at PDGF-Ra and at c-kit was 11 nM in each case.
For `COc1cccc(NCCOc2ccc(Oc3ccnc4cc(OC)c(OC)cc34)cc2)c1` [Example 779, N-(2-{4-[(6,7-Dimethoxy-4-quinolyl)oxy]phenoxy}ethyl)-N-(3-methoxyphenyl)amine], the values for the IC50 on PDGF-Ra and at c-kit were under 10 nM and 107 nM, respectively.
On to `COc1cc2nccc(Oc3ccc(OCCCOc4ccc(C)cc4)cc3)c2cc1OC` [Example 790, 6,7-Dimethoxy-4-{4-[3-(4-methylphenoxy)propoxy]phenoxy}quinoline], for which the IC50 at PDGF-Ra is under 3 nM; at c-kit it was 107 nM.

For the origin of these results see patent publication US7135466B2 (Kirin Beer Kabushiki Kaisha, priority 1999, dated 2006).
